Reference: US11319283B2, “Substituted cyclobutylbenzene compounds as indoleamine 2,3-dioxygenase (IDO) inhibitors” (MERCK SHARP & DOHME CORP., priority 2017, dated 2022)

Legend:
Format in all cases: cell-based
TDO = molecular target: T1, TDO (Homo sapiens, UniProt P48775); assay: TDO Cellular Assay in Frozen SW48 Cells; details: 300 uM L-tryptophan, about 48 hours, fluorescence readout
T1 construct: endogenous in cells; host or cells: SW48 cells (A2780 cells as control with minimal TDO activity)
Protocol: TDO Cellular Assay in Frozen SW48 Cells
SW48 cells were cultured in complete RPMI culture medium (90% RPMI, 10% heat-inactivated fetal bovine serum).
Compounds to be tested were serially diluted in ten 3-fold steps in DMSO starting from 10 mM DMSO stocks in Echo low volume plate(s). […] The cells were spun down at 350 g in a table top centrifuge for 5 minutes and suspended in same volume of RPMI assay medium. […] Sterile L-tryptophan (Sigma, Cat # T0254) was added to the cells with final concentration of 300 uM.
SW48 and A2780 cells were dispensed to the respective wells of 384-well assay plates containing the compounds. The plates were incubated for about 48 hours at a 37° C., 5% CO2 incubator. Afterwards, 12 μL of 0.5 M ethyl isonipecotate (Sigma Aldrich, Cat # E33505) in dimethyl sulfoxide were added into each well and the plates were sealed and incubated at 37° C. without CO2 overnight. The plates were centrifuged for 1 minute at 200×g. The resulting fluorescence was measured in a Spectramax plate reader (Molecular Devices) with a 400 nm excitation filter and a 510 nm emission filter.
The fluorescence intensity of each well was corrected for the background observed in wells with A2780 cells and was expressed as a fraction of the intensity observed in wells of SW48 cells and DMSO only. Potencies were calculated by linear least squares fit to the four parameter logistic IC50 equation.

IDO1 [1] = molecular target: T2, IDO1 (Homo sapiens, UniProt P14902); assay: IDO1 Cellular Assay in Hela Cells Stimulated with IFNγ; design: endogenous in cells; host or cells: HeLa cells stimulated with IFNγ (100 ng/mL); details: Hela cells stimulated with IFNγ 100 ng/mL, 300 uM L-tryptophan, about 48 hours, fluorescence readout
Protocol: IDO1 Cellular Assay in Hela Cells Stimulated with IFNγ
Hela cells were cultured in complete Hela culture medium (90% EMEM, 10% heat-inactivated fetal bovine serum) and expanded to about 1×10^9 cells. The cells were then collected and frozen down at 1×10^7 cells/vial in 1 mL frozen medium (90% complete Hela culture medium, 10% DMSO)
Compounds to be tested were serially diluted in ten 3-fold steps in DMSO starting from 10 mM DMSO stocks in Echo low volume plate(s).
Frozen Hela cells were thawed and transferred into Hela assay medium (99% complete Hela culture medium, 1% Pen/Strep) with 20 mL medium/vial of cells. The cells were spun down at 250 g in a table top centrifuge for 5 min and suspended in same volume of Hela assay medium. The cells were then counted and adjusted to a density of 2×10^5 cells/ml in Hela assay medium. Sterile L-tryptophan were added to the cells with final concentration of 300 uM L-tryptophan. A small aliquot (2 mL/plate) of Hela cells were set aside and were not treated with IFNγ, to serve as the Max-E control.
Hela cells with and without IFNγ were dispensed to the respective wells of 384-well assay plates containing the compounds. The plates were incubated for about 48 hours at a 37° C., 5% CO2 incubator. Afterwards, […] of 0.5 M methyl isonipecotate in dimethyl sulfoxide were added into each well and the plates were sealed and incubated at 37° C. without CO2 overnight. The plates were centrifuged for 1 min at 200×g. The resulting fluorescence was measured in a Spectramax plate reader (Molecular Devices) with a 400 nm excitation filter and a 510 nm emission filter.
Potencies were calculated by linear least squares fit to the four parameter logistic IC50 equation.

IDO1 [2] = molecular target: T2, IDO1; assay: IDO1 Human Whole Blood Assay; design: from tissue; host or cells: human whole blood from healthy donors, stimulated with LPS and IFNγ; details: LPS and IFNγ 100 ng/mL, overnight (18 h), kynurenine by LC/MS/MS
Protocol: IDO1 Human Whole Blood Assay
Compounds to be tested were serially diluted in ten 3-fold steps in DMSO starting from 10 mM. […] LPS and IFNγ was prepared in RPMI to a 10× of final conc. (1000 ng/mL), final concentration is 100 ng/mL.
Human whole blood was drawn in sodium heparin coated tubes from healthy internal donors. […] of blood was transferred to each of the wells of a v-bottom 96 well plate. […] of compound was transferred from intermediate dilution plate, and incubated for 15 min. 30 μL from stimulants was then transferred to blood and mixed thoroughly. Plate was covered with breathable membrane and incubated at 37° C. for overnight (18 h).
On day 2 isotope labeled standard of kynurenine and tryptophan was made in water at 10× concentration and […] was added to the blood at […] final concentration. The assay plates were centrifuged at 300×G for 10 min with no brake to separate plasma from red blood cells. […] of plasma samples was removed without disturbing red blood cells. Plasma was diluted with RPMI in 1:1 ratio and proteins were precipitated out with two volume of Acetonitrile. The plates was centrifuged at 4000×G for 60 min. 20 mL of supernatant was carefully transferred to a 384 well plate contain 40 mL of 0.1% formic acid in water and analyzed by LC/MS/MS.
LC/MS/MS analyses were performed using Thermo Fisher's LX4-TSQ Quantum Ultra system. This system consists of four Agilent binary high-performance liquid chromatography (HPLC) pumps and a TSQ Quantum Ultra triple quadruple MS/MS instrument. For each sample, […] were injected onto an Atlantis T3 column (2.1 mm×150 mm, […]) from Waters. The mobile phase gradient pumped at 0.8 mL/min was used to elute the analytes from the column at 25° C. […] Mobile phase A consisted of 0.1% formic acid in water. Mobile phase B consisted of 0.1% of formic acid in acetonitrile. Data was acquired in positive mode using a HESI interface. The operational parameters for the TSQ Quantum Ultra instrument were a spray voltage of 4000 V, capillary temperature of 380° C., vaporizer temperature 400° C., shealth gas 60 arbitrary units, Aux gas 20 arbitrary units, tube lens 85 and collision gas 1.2 mTorr. […] The peak area was integrated by Xcalibur Quan software. The ratios between the kynurenine generated in the reaction and 2D6-Kynurenine spiked-in internal standard were used to generate percentage inhibition and IC50 values. Compounds were titrated and IC50's were calculated by 4 parameter sigmoidal curve fitting formula.

T2 sequence (P14902 whole entry): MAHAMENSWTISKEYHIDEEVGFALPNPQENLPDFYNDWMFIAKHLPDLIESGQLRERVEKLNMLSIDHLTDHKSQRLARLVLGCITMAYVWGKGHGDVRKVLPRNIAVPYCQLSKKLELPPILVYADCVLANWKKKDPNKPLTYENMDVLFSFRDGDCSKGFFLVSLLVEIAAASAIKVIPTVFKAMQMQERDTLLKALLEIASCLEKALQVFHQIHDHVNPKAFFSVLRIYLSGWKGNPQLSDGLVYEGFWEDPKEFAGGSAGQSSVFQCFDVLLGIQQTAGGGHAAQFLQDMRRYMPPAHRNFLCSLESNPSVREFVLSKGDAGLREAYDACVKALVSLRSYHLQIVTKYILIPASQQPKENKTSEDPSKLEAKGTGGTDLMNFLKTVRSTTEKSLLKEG
T1 sequence (P48775 whole entry): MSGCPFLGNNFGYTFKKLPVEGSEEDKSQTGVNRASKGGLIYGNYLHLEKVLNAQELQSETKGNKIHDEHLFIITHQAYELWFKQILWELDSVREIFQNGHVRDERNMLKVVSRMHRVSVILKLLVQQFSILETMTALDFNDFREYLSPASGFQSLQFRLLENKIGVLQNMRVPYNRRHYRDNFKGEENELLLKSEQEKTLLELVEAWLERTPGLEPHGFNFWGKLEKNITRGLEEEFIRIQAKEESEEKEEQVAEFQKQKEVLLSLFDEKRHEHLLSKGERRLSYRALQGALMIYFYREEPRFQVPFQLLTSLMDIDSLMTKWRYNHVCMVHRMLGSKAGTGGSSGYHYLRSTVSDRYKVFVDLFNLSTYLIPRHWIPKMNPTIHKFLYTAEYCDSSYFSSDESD

IC50 (TDO) | IC50 (IDO1 [1]) | IC50 (IDO1 [2]) | SMILES
≥ 10000 nM | 7 nM | 797 nM | CC1CC1NC(=O)C1(c2ccc(NC(=O)c3cccc(Cl)c3)cc2)CCC1 (single isomer, unassigned) [Example 21, 3-chloro-N-(4-(1-((2-methylcyclopropyl)carbamoyl)cyclobutyl)phenyl)benzamide]
≥ 10000 nM | 3 nM | 186 nM | N#Cc1ccc(C(=O)NC2(c3ccc(NC(=O)c4cccc(Cl)c4)cc3)CCC2)cc1 [Example 2, 3-Chloro-N-(4-(1-(4-cyanobenzamido)cyclobutyl)phenyl)benzamide]
≥ 10000 nM | 4 nM | 345 nM | O=C(Nc1ccc(C2(NC(=O)c3ccc(Cl)nc3)CCC2)cc1)c1cccc(Cl)c1 [Example 7, 6-chloro-N-(1-{4-[(3-chlorobenzene-1-carbonyl)amino]phenyl}cyclobutyl)pyridine-3-carboxamide]
≥ 10000 nM | 2 nM | 336 nM | O=C(Nc1ccc(C2(NC(=O)c3ccc(Cl)cc3)CCC2)cc1)c1cccc(Cl)c1 [Example 19, 3-Chloro-N-(4-(1-(4-chlorobenzamido)cyclobutyl)phenyl)benzamide]
≥ 10000 nM | 4 nM | 253 nM | O=C(Nc1ccc(C2(C(=O)Nc3ccc(F)cn3)CCC2)cc1)c1cccc(Cl)c1 [Example 28, 3-chloro-N-(4-{1-[(5-fluoropyridin-2-yl)carbamoyl]cyclobutyl}phenyl)benzamide]
≥ 10000 nM | 5 nM | 795 nM | O=C(Nc1ccc(C2(C(=O)NC3CCCCC3)CCC2)cc1)c1cccc(Cl)c1 [Example 30, 3-chloro-N-{4-[1-(cyclohexylcarbamoyl)cyclobutyl]phenyl} benzamide]
≥ 10000 nM | 12 nM | 738 nM | O=C(Nc1ccc(C2(C(=O)N[C@@H]3C[C@H]3C(F)(F)F)CCC2)cc1)c1cccc(Cl)c1 [Example 32]
≥ 10000 nM | 15 nM | 1880 nM | O=C(Nc1ccc(C2(C(=O)NC3CCC(F)(F)CC3)CCC2)cc1)c1cccc(Cl)c1 [Example 33, 3-chloro-N-(4-{1-[(4,4-difluorocyclohexyl)carbamoyl]cyclobutyl}phenyl) benzamide]
≥ 10000 nM | 24 nM | 1600 nM | Cn1ccc(NC(=O)C2(c3ccc(NC(=O)c4cccc(Cl)c4)cc3)CCC2)n1 [Example 35, 3-chloro-N-(4-{1-[(1-methyl-1H-pyrazol-3-yl)carbamoyl]cyclobutyl}phenyl)benzamide]
≥ 10000 nM | 2 nM | 70 nM | O=C(Nc1ccc(C2(C(=O)Nc3ccc(F)cc3)CC(F)(F)C2)cc1)c1cccc(Cl)c1 [Example 63, 3-chloro-N-(4-(3,3-difluoro-1-((4-fluorophenyl)carbamoyl)cyclobutyl)phenyl)benzamide]
≥ 10000 nM | 13 nM | – | CCCNC(=O)C1(c2ccc(NC(=O)c3ccc(Cl)c(Cl)c3)cc2)CCC1 [Example 81, 3,4-dichloro-N-{4-[1-(propylcarbamoyl)cyclobutyl]phenyl}benzamide]
≥ 10000 nM | 117 nM | – | O=C(Nc1ccc(C2(C(=O)NCCC(F)(F)F)CCC2)cc1F)c1cccc(Cl)c1 [Example 82, 3-Chloro-N-(2-fluoro-4-(1-((3,3,3-trifluoropropyl)carbamoyl)cyclobutyl)phenyl)benzamide]
≥ 10000 nM | 128 nM | – | O=C(Nc1ccc(C2(C(=O)NCCC(F)(F)F)CCC2)cc1CO)c1cccc(Cl)c1 [Example 83, 3-Chloro-N-(2-(hydroxymethyl)-4-(1-((3,3,3-trifluoropropyl)carbamoyl)cyclobutyl)phenyl)benzamide]
≥ 10000 nM | 176 nM | – | CC(C)(C)/N=C/c1cc(C2(C(=O)NCCC(F)(F)F)CCC2)ccc1NC(=O)c1cccc(Cl)c1 [Example 84, N-(2-[(E)-(tert-butylimino)melhyl]-4-{1-[(3,3,3-trifluoropropyl)carbamoyl]cyclobutyl}phenyl)-3-chlorobenzamide]
≥ 10000 nM | 5 nM | 219 nM | O=C(Nc1ccc(C2(C(=O)Nc3ccc(F)cn3)CCC2)cc1CO)c1cccc(Cl)c1 [Example 85, 3-chloro-N-[4-{1-[(5-fluoropyridin-2-yl)carbamoyl]cyclobutyl}-2-(hydroxymethyl)phenyl] benzamide]
≥ 10000 nM | 1050 nM | – | CCCNC(=O)C1(c2ccc(NC(=O)C3Cc4ccccc43)cc2)CCC1 (stereo not shown) [Example 87, N-{4-[1-(propylcarbamoyl)cyclobutyl]phenyl}bicyclo[4.2.0]octa-1,3,5-triene-7-carboxamide]
≥ 10000 nM | 2 nM | 57 nM | N#Cc1cccc(C(=O)Nc2ccc(C3(C(=O)Nc4ccc(Cl)nc4)CCC3)cc2)c1 [Example 88, N-(4-{1-[(6-chloropyridin-3-yl)carbamoyl]cyclobutyl}phenyl)-3-cyanobenzamide]
